From patent publication US9328369B2, “Process for production of useful substance, and surfactant for use in the process” (priority 2009, dated 2016)

test system: Escherichia coli(δ); assay: Production by secretion in microbial culture system, cellulase expressing strain (Table 5); type: cell-based; design: key to Turbidity: (measured turbidity of diluted culture − blank) × dilution rate; settings: Examples 2-11; surfactant 1 wt %; at termination of culturing; obtained from turbidity
Method: A bglC gene of Bacillus licheniformis was amplified by the PCR method using primers 9 and 10 (Table 4). After being treated with restriction enzymes NcoI and BamHI, a PCR amplified fragment was bound to an NcoI restriction enzyme site and a BamHI restriction enzyme site of a pET-22b plasmid (product of Novagen). Then, the plasmid was transformed into a BL21 (DE3) Escherichia coli strain (product of Novagen) to form Escherichia coli […] that expresses cellulase.
Overnight cultures (1 ml) of Escherichia coli (δ) obtained in Production Example 4 and Escherichia coli (ε) obtained in Production Example 5 were respectively prepared as Comparative Example 2 and Comparative Example 4. An amount of 0.5 ml of each was inoculated in 5 ml of an LB culture solution (containing 100 mg/L of ampicillin) and was shake-cultured at 30° C. for 3 hours. In this manner, pre-culture solutions were prepared. The pre-culture solutions were each inoculated in 50 mL of a culture solution (1.2 g of yeast extract (Nihon Pharmaceutical Co., Ltd.), 0.6 g of polypeptone (Nihon Pharmaceutical Co., Ltd.), 0.47 g of dipotassium phosphate, 0.11 g of monopotassium phosphate, 0.35 g of ammonium sulfate, 0.66 g of disodium phosphate 12-hydrate, 0.02 g of sodium citrate dihydrate, 0.2 g of glycerol, 1.5 g of lactalbumin hydrolysate, 0.3 g of a defoaming agent (Shin-Etsu Chemical Co., Ltd., “KM-70”), 1 mM magnesium sulfate, trace metal solution (18.9 μg of calcium chloride, 500 μg of iron chloride (III), 9.0 μg of zinc sulfate heptahydrate, 5.1 μg of copper sulfate, 6.7 μg of manganese chloride tetrahydrate, 4.9 μg of cobalt chloride, 200 μg of ethylene-diamine-tetraacetic acid tetrasodium salt), 100 mg/L ampicillin). Culturing was initiated with use of a microbial culture system (ABLE Corporation, product name “BioJr. 8”), while the pH value and the temperature were maintained at 6.8 and 30° C. After the culturing was initiated, 0.15 mL of 1M IPTG was added. After 14 hours from the initiation of culturing, instillation of a glycerin/protein solution (50% of glycerin, 50 g/L of lactalbumin hydrolysate, a 33 g/L defoaming agent (Shin-Etsu Chemical Co., Ltd., “KM-70”), 100 mg/L ampicillin) was started. The culturing was terminated after 48 hours from the initiation and the culture solution was recovered. The whole protein in the culture solution was analyzed by SDS-PAGE. Based on the obtained amount of the protein band, the recombinant protein was quantified.
The dried cell density at the termination of the culturing was determined by the following processes (1) to (5):
The dried cell density was determined by applying the measuring results in the process (5) and the process (1) and the volume (L) of the culture solution used in the process (2) to the following formula: Dried cell density (g/L)=([measuring result in process (5)]−[measuring result in process (1)])/0.1.
Performance of this processes for several times clarified the proportional relationship between the turbidity of the culture solution and the dried cell density. Therefore, the dried cell density was obtained from the measured turbidity in each of Comparative Examples 2 to 4 and Examples 2 to 14.
The turbidity of a culture solution that is same as the culture solution used in the measurement of the dried cell density was measured using a turbidimeter (Shimadzu Corporation, UV-1700) and 1 ml of quarts cell.
For measurement, the culture solution was diluted in saline to have an appropriate absorbance. The absorbance of the same culture solution (but not containing bacteria) diluted at the same dilution as above was set as a blank. The turbidity of the culture solution was calculated by using the following formula: Turbidity of culture solution=[(measured turbidity of diluted culture solution)−(measured turbidity of blank)]×dilution rate.
The dried cell density and the turbidity of the culture solution were plotted to construct a graph in FIG. 3. […]

| Compound | Dried cell density [g/L] |
| --- | --- |
| CCCCCCCCCCCC(=O)NCCN(CCO)CC(=O)O.[Na] [A-13, Sodium N-lauroyl-N′-carboxymethyl-N′-hydroxyethyl ethylenediamine] | 21.4 |
| Sodiumt polyoxyethylene (3 mol) laurylether acetate [A-9] | 14.2 |
| CCCCCCCCCCCC[N+](C)(C)CC(=O)[O-] [A-5, Lauryl dimethylamino acetate betaine] | 23.8 |

same assay, conditions: Examples 2-11; surfactant 1 wt %; culturing terminated after 48 hours

| Compound | Turbidity |
| --- | --- |
| CCCCCCCCCCCC(=O)NCCN(CCO)CC(=O)O.[Na] [A-13, Sodium N-lauroyl-N′-carboxymethyl-N′-hydroxyethyl ethylenediamine] | 76.4 |
| Sodiumt polyoxyethylene (3 mol) laurylether acetate [A-9] | 50.7 |
| CCCCCCCCCCCC[N+](C)(C)CC(=O)[O-] [A-5, Lauryl dimethylamino acetate betaine] | 85 |

test system: Escherichia coli (β); assay: Screening of secretion efficiency, TorA expressing strain; type: cell-based; settings: surfactant 1 wt %; 37° C., 1 hour; ELISA, anti-His-tag antibody
Excerpt: A torA gene of an Escherichia coli strain W3110 was amplified by the PCR method using primers 3 and 4 (Table 4). After being treated with restriction enzymes NdeI and BamHI, a PCR fragment was bound to an NdeI restriction enzyme site and a BamHI restriction enzyme site of a pET-22b plasmid (product of Novagen). Then, the plasmid was transformed into an AG1 (DE3) Escherichia coli strain to form a TorA expressing strain (β). Localization of the expressed TorA in a periplasmic fraction was confirmed by conducting an analysis based on the method disclosed in page 121 of Vol. 353 of METHODS IN ENZYMOLOGY (2002).
A pdxA gene of an Escherichia coli strain W3110 was amplified by the PCR method using primers 5 and 6 (Table 4). After being treated with restriction enzymes NdeI and BamHI, a PCR fragment was bound to an NdeI restriction enzyme site and a BamHI restriction enzyme site of a pET-22b plasmid (product of Novagen). Then, the plasmid was transformed into an AG1 (DE3) Escherichia coli strain to form a PdxA expressing strain (γ). Localization of the expressed PdxA in a cytoplasmic compartment was confirmed by conducting an analysis based on the method disclosed in page 121 of Vol. 353 of METHODS IN ENZYMOLOGY (2002). […]
(4) Then, the solution was allowed to stand at 37° C. for 1 hour. […] Here, the quantification of the recombinant protein in the resulting solution was carried out by ELISA assay with use of an anti-His-tag antibody. The sample prior to the centrifugation in the process (3) was treated with ultrasonic waves (200 W, 10 minutes) and the quantification of the recombinant protein therein was similarly carried out by ELISA assay with use of an anti-His-tag antibody. The ratio of lysed bacteria was obtained with use of Escherichia coli (γ), and the secretion efficiencies of the recombinant proteins of Escherichia coli (α) and (β) were calculated by using the following formula. […]
“Z” represents the ratio of lysed bacteria obtained with use of Escherichia coli (γ), which is determined by the following formula: Z=Z1/Z2. […]

| Compound | Secretion efficiency (%) Escherichia coli (β) [%] |
| --- | --- |
| Palm oil fatty acid amide propyl dimethyl amino acetate betaine [A-3] | 93.6 |

test system: Escherichia coli(δ); assay: Production by secretion in microbial culture system, cellulase expressing strain (Table 5); type: cell-based; settings: Examples 2-11; surfactant 1 wt %; supernatant of culture solution, SDS-PAGE

| Compound | Quantitative value of produced recombinant protein [g/L] |
| --- | --- |
| CCCCCCCCCCCC(=O)NCCN(CCO)CC(=O)O.[Na] [A-13, Sodium N-lauroyl-N′-carboxymethyl-N′-hydroxyethyl ethylenediamine] | 1.79 |
| Sodiumt polyoxyethylene (3 mol) laurylether acetate [A-9] | 1.35 |
| CCCCCCCCCCCC[N+](C)(C)CC(=O)[O-] [A-5, Lauryl dimethylamino acetate betaine] | 2.58 |

test system: Escherichia coli (α); assay: Screening of secretion efficiency, alkaline phosphatase expressing strain; type: cell-based; settings: surfactant 1 wt %; 37° C., 1 hour; ELISA, anti-His-tag antibody
Excerpt: An alkaline phosphatase (phoA) gene of an Escherichia coli strain W3110 was amplified by the PCR method using primers 1 and 2 (Table 4). After being treated with restriction enzymes NdeI and BamHI, a PCR fragment was bound with an NdeI restriction enzyme site and with a BamHI restriction enzyme site of a pET-22b plasmid (product of Novagen). Then, the plasmid was transformed into an AG1 (DE3) Escherichia coli strain formed by transforming an Escherichia coli strain AG1 (product of TOYOBO Co., LTD.) with use of a λDE3 Lysogenization Kit (product of Novagen). In this manner, an alkaline phosphatase expressing strain (a) was formed.
A pdxA gene of an Escherichia coli strain W3110 was amplified by the PCR method using primers 5 and 6 (Table 4). After being treated with restriction enzymes NdeI and BamHI, a PCR fragment was bound to an NdeI restriction enzyme site and a BamHI restriction enzyme site of a pET-22b plasmid (product of Novagen). Then, the plasmid was transformed into an AG1 (DE3) Escherichia coli strain to form a PdxA expressing strain (γ).
In this manner, culture solutions were prepared.
(2) The strains were collected using a centrifuge (4,000 G, 4° C., 15 minutes). Each of the collected Escherichia coli strains was resuspended in 1 mL of a TB culture solution (product of Difco) and chloramphenicol (30 mg/L) and IPTG (100 μM) were added thereto. Shake culture at 37° C. for 3 hours induced expression of phoA, torA, and pdxA.
(3) Subsequently, harvesting using a centrifuge was carried out again (4,000 G, 4° C., 15 minutes). Each of the collected Escherichia coli strains was resuspended in 2.5 mL of a Tris-NaCl buffer solution (50 mM Tris (pH 7.5), 100 mM NaCl). The resulting solution was divided into 25-μL portions at a time to be mixed with 25 μL of a Tris-NaCl buffer solution.
(4) Then, the solution was allowed to stand at 37° C. for 1 hour. The supernatant solution was collected and diluted in a Tris-NaCl buffer solution to a proper concentration. Here, the quantification of the recombinant protein in the resulting solution was carried out by ELISA assay with use of an anti-His-tag antibody. The sample prior to the centrifugation in the process (3) was treated with ultrasonic waves (200 W, 10 minutes) and the quantification of the recombinant protein therein was similarly carried out by ELISA assay with use of an anti-His-tag antibody. The ratio of lysed bacteria was obtained with use of Escherichia coli (γ), and the secretion efficiencies of the recombinant proteins of Escherichia coli (α) and (β) were calculated by using the following formula. […] Secretion efficiency (%)=100×{(X/Y)−Z}.
In the formula, “X” represents the amount of the recombinant protein in the culture solution after removal of bacterial cells by centrifugation in the case of using Escherichia coli (α) or (β).
“Y” represents the amount of the whole recombinant protein in the culture solution in the case of using Escherichia coli (α) or (β).
“Z” represents the ratio of lysed bacteria obtained with use of Escherichia coli (γ), which is determined by the following formula: Z=Z1/Z2.
In the formula, “Z1” represents the amount of the recombinant protein in the culture solution which remains after removal of bacterial cells by centrifugation in the case of using Escherichia coli (γ).
“Z2” represents the amount of the whole recombinant protein in the culture solution in the case of using Escherichia coli (γ).
Escherichia coli (α) and (β) were each cultured in the same manner as in the above case except that polyoxyethylene (3 mol) tridecyl ether sodium acetate as the surfactant (A) was added right after the resuspension of the Escherichia coli in the buffer solution in the process (3) of A-0, in an amount of 1% by weight on the basis of the weight of the suspension of the bacterium. The secretion efficiency was calculated according to the above-mentioned definition.

| Compound | Secretion efficiency (%) Escherichia coli (α) [%] |
| --- | --- |
| CCCCCCCCCCCC(=O)NCCN(CCO)CC(=O)O.[Na] [A-13, Sodium N-lauroyl-N′-carboxymethyl-N′-hydroxyethyl ethylenediamine] | 46.6 |
| Sodiumt polyoxyethylene (3 mol) laurylether acetate [A-9] | 63.3 |
| Palm oil fatty acid amide propyl dimethyl amino acetate betaine [A-3] | 91.3 |
| CCCCCCCCCCCC[N+](C)(C)CC(=O)[O-] [A-5, Lauryl dimethylamino acetate betaine] | 87.8 |
| CCCCCCCCCC[N+](C)(C)CCCCCCCCCC.[Cl-] [A-48, Didecyl dimethyl ammonium chloride] | 2.7 |
| Polyoxyethylene (Mw = 300) oleate diester [A-57] | 1.5 |
| Polyethylene glycol monoisostearate [A-29] | 7.6 |
| Polyoxyethylene (20 mol) sorbitan monolaurate [A-56] | 1.6 |
| EO 20 mol adduct of sorbitan trioleate [A-41] | 4.6 |
| Polyethylene glycol diisostearate [A-22] | 26.2 |
| Polyoxyethylene(Mw = 1000)dioleate [A-66] | 0.3 |
| EO 24 mol adduct trilaurate of trimethylolpropane [A-64] | 0.5 |
| Triethanol amine alkyl (C12, C13) sulfate [A-18] | 30.7 |
| Sodium polyoxyethylene (2.5 mol) laurylether sulfate [A-11] | 53.2 |
| EO 3 mol adduct of higher alcohol (C11 to C 15) [A-10] | 56.9 |
| Lanolin fatty acid aminopropyl ethylene dimethyl ammonium ethyl sulfate [A-28] | 9.2 |
| Lauryl diphenyl ether sodium disulfonate [A-74] | 0.0 |
| EO 6 mol adduct of decyl alcohol [A-12] | 53.1 |
| Isostearylalcohol polyoxyethylene (5 mol) sodium phosphate [A-31] | 6.2 |
| Palm oil fatty acid diethanol amide [A-2] | 97.5 |
| Ester thiodipropionate of polyoxyethylene (3 mol) alkyl (C12, C15) ether [A-25] | 11.8 |
